According to paper PMC9516332 (Frontiers in Oncology, 2022):
Read-outs that look alike come from different tables or passages of the source.

Legend:
[1] = system: 134 cancer cell lines
[2] = system: AP-1060 (ETV6-NTRK3); assay: Cell viability assay; conditions: read-out: IC50 in cell proliferation assay
[3] = system: 134 cancer cell lines; assay: Cell viability assay (ATPlite, 72 hours), IC50 on cancer cell line panel

COC(=O)N[C@@H](C)CNc1nccc(-c2cn(C(C)C)nc2-c2cc(Cl)cc(NS(C)(=O)=O)c2F)n1 [encorafenib]
IC50 [1]: 0.592 µM | IC50 [2]: 2.52 µM | IC50 ([3]; HEC-6, read-out: IC50 in cell proliferation assay, HEC-6 cell line (EGFR p.A289V)): 1.24 µM | IC50 ([3]; Homo sapiens, 769-P, read-out: IC50 in cell proliferation assay, cell line 769-P): 1.19 µM | IC50 ([3]; Homo sapiens, 786-0, read-out: IC50 in cell proliferation assay, cell line 786-O): 1.39 µM | IC50 ([3]; Homo sapiens, A 172, read-out: IC50 in cell proliferation assay, cell line A-172): 1.79 µM | IC50 ([3]; Homo sapiens, A204, read-out: IC50 in cell proliferation assay, cell line A-204): 1.05 µM | IC50 ([3]; Homo sapiens, A498, read-out: IC50 in cell proliferation assay, cell line A-498): 0.527 µM | IC50 ([3]; Homo sapiens, A549, read-out: IC50 in cell proliferation assay, cell line A-549): 1.22 µM | IC50 ([3]; Homo sapiens, A704, read-out: IC50 in cell proliferation assay, cell line A-704): 5.46 µM | IC50 ([3]; Homo sapiens, A-375, read-out: IC50 in cell proliferation assay, cell line A-375 (BRAF p.V600E)): 0.009 µM | IC50 ([3]; Homo sapiens, A-427, read-out: IC50 in cell proliferation assay, cell line A-427): 0.84 µM | IC50 ([3]; Homo sapiens, ACHN, read-out: IC50 in cell proliferation assay, cell line ACHN): 0.624 µM | IC50 ([3]; Homo sapiens, AN3-CA, read-out: IC50 in cell proliferation assay, cell line AN3-CA (FGFR2 p.N549K)): 0.623 µM | IC50 ([3]; Homo sapiens, ASPC1, read-out: IC50 in cell proliferation assay, cell line AsPC-1): 2.88 µM | IC50 ([3]; Homo sapiens, AU565, read-out: IC50 in cell proliferation assay, cell line AU565 (ERBB2 amplification)): 0.421 µM | IC50 ([3]; Homo sapiens, BT-20, read-out: IC50 in cell proliferation assay, cell line BT-20): > 31.6 µM | IC50 ([3]; Homo sapiens, BT-474, read-out: IC50 in cell proliferation assay, cell line BT-474 (ERBB2 amplification)): > 31.6 µM | IC50 ([3]; Homo sapiens, BT-549, read-out: IC50 in cell proliferation assay, cell line BT-549): 1.02 µM | IC50 ([3]; Homo sapiens, BXPC-3, read-out: IC50 in cell proliferation assay, cell line BxPC-3): 0.408 µM | IC50 ([3]; Homo sapiens, C-33-A, read-out: IC50 in cell proliferation assay, cell line C-33 A): 0.922 µM | IC50 ([3]; Homo sapiens, CAL-27, read-out: IC50 in cell proliferation assay, cell line CAL-27): 6.98 µM | IC50 ([3]; Homo sapiens, CCF-STTG1, read-out: IC50 in cell proliferation assay, cell line CCF-STTG1): > 31.6 µM | IC50 ([3]; Homo sapiens, CCRF-CEM, read-out: IC50 in cell proliferation assay, cell line CCRF-CEM): > 31.6 µM | IC50 ([3]; Homo sapiens, COLO 205, read-out: IC50 in cell proliferation assay, cell line COLO 205 (BRAF p.V600E)): 0.00332 µM | IC50 ([3]; Homo sapiens, COLO-829, read-out: IC50 in cell proliferation assay, cell line COLO 829 (BRAF p.V600E)): 0.009 µM | IC50 ([3]; Homo sapiens, DLD-1, read-out: IC50 in cell proliferation assay, cell line DLD-1): 1.65 µM | IC50 ([3]; Homo sapiens, DU-4475, read-out: IC50 in cell proliferation assay, cell line DU4475 (BRAF p.V600E)): 0.008 µM | IC50 ([3]; Homo sapiens, Daoy, read-out: IC50 in cell proliferation assay, cell line Daoy): > 31.6 µM | IC50 ([3]; Homo sapiens, DoTc2-4510, read-out: IC50 in cell proliferation assay, cell line DoTc2 4510): 3.28 µM | IC50 ([3]; Homo sapiens, EOL1, read-out: IC50 in cell proliferation assay, cell line EoL-1 (FIP1L1-PDGFRA)): 2.34 µM | IC50 ([3]; Homo sapiens, FaDu, read-out: IC50 in cell proliferation assay, cell line FaDu): 0.964 µM | IC50 ([3]; Homo sapiens, G-361, read-out: IC50 in cell proliferation assay, cell line G-361 (BRAF p.V600E)): 0.013 µM | IC50 ([3]; Homo sapiens, HCC827, read-out: IC50 in cell proliferation assay, cell line HCC827 (EGFR exon19del)): 0.893 µM | IC50 ([3]; Homo sapiens, HCC4006, read-out: IC50 in cell proliferation assay, cell line HCC4006 (EGFR exon19del)): > 31.6 µM | IC50 ([3]; Homo sapiens, HCT-15, read-out: IC50 in cell proliferation assay, cell line HCT 15): 2.94 µM | IC50 ([3]; Homo sapiens, HCT-116, read-out: IC50 in cell proliferation assay, cell line HCT 116): 1.15 µM | IC50 ([3]; Homo sapiens, HEC-1, read-out: IC50 in cell proliferation assay, HEC-1 cell line): 1.57 µM | IC50 ([3]; Homo sapiens, HEC-1B, read-out: IC50 in cell proliferation assay, HEC-1-B cell line (EGFR p.A864V)): 2.1 µM | IC50 ([3]; Homo sapiens, HL-60, read-out: IC50 in cell proliferation assay, HL-60 cell line): 1.8 µM | IC50 ([3]; Homo sapiens, HT, read-out: IC50 in cell proliferation assay, HT cell line): > 31.6 µM | IC50 ([3]; Homo sapiens, HT-1080, read-out: IC50 in cell proliferation assay, HT-1080 cell line): 0.381 µM | IC50 ([3]; Homo sapiens, Hs746T, read-out: IC50 in cell proliferation assay, Hs 746.T cell line (MET exon14skip + amplification)): 1.12 µM | IC50 ([3]; Homo sapiens, Hs-578T, read-out: IC50 in cell proliferation assay, Hs 578T cell line): 1.03 µM | IC50 ([3]; Homo sapiens, HuTu80, read-out: IC50 in cell proliferation assay, HuTu 80 cell line): 1.12 µM | IC50 ([3]; Homo sapiens, J82, read-out: IC50 in cell proliferation assay, J82 cell line): 0.949 µM | IC50 ([3]; Homo sapiens, Jurkat E6.1, read-out: IC50 in cell proliferation assay, Jurkat E6.1 cell line): 1.03 µM | IC50 ([3]; Homo sapiens, K562, read-out: IC50 in cell proliferation assay, K-562 cell line): 27.6 µM | IC50 ([3]; Homo sapiens, KATO III, read-out: IC50 in cell proliferation assay, KATO III cell line (FGFR2 amplification)): 1.51 µM | IC50 ([3]; Homo sapiens, KG-1, read-out: IC50 in cell proliferation assay, KG-1 cell line (FGFR1OP2-FGFR1)): 1.44 µM | IC50 ([3]; Homo sapiens, KLE, read-out: IC50 in cell proliferation assay, KLE cell line): 0.822 µM | IC50 ([3]; Homo sapiens, KMS-11, read-out: IC50 in cell proliferation assay, KMS-11 cell line (FGFR3 p.Y373C)): 3.39 µM | IC50 ([3]; Homo sapiens, KU812, read-out: IC50 in cell proliferation assay, Ku812 cell line): 2.57 µM | IC50 ([3]; Homo sapiens, Kasumi 1, read-out: IC50 in cell proliferation assay, Kasumi-1 cell line (KIT p.N822K)): 3.02 µM | IC50 ([3]; Homo sapiens, LC-2-ad, read-out: IC50 in cell proliferation assay, LC-2/ad cell line (CCDC6-RET)): 1.53 µM | IC50 ([3]; Homo sapiens, LNCaP-Clone-FGC, read-out: IC50 in cell proliferation assay, LNCaP clone FGC cell line): 2.15 µM | IC50 ([3]; Homo sapiens, LS174T, read-out: IC50 in cell proliferation assay, LS174T cell line): 1.7 µM | IC50 ([3]; Homo sapiens, LS-411N, read-out: IC50 in cell proliferation assay, LS411N cell line (BRAF p.V600E)): 0.006 µM | IC50 ([3]; Homo sapiens, LoVo, read-out: IC50 in cell proliferation assay, LoVo cell line): 2.5 µM | IC50 ([3]; Homo sapiens, MCF7, read-out: IC50 in cell proliferation assay, MCF-7 cell line): > 31.6 µM | IC50 ([3]; Homo sapiens, MDA-MB-231, read-out: IC50 in cell proliferation assay, MDA-MB-231 cell line): 2.43 µM | IC50 ([3]; Homo sapiens, MDA-MB-453, read-out: IC50 in cell proliferation assay, MDA-MB-453 cell line): > 31.6 µM | IC50 ([3]; Homo sapiens, MDA-MB-468, read-out: IC50 in cell proliferation assay, MDA-MB-468 cell line): > 31.6 µM | IC50 ([3]; Homo sapiens, MG-63, read-out: IC50 in cell proliferation assay, MG-63 cell line): > 31.6 µM | IC50 ([3]; Homo sapiens, MIA PaCa-2, read-out: IC50 in cell proliferation assay, MIA PaCa-2 cell line): 1.24 µM | IC50 ([3]; Homo sapiens, MKN-45, read-out: IC50 in cell proliferation assay, MKN45 cell line (MET amplification)): 3.81 µM | IC50 ([3]; Homo sapiens, MOLM-13, read-out: IC50 in cell proliferation assay, MOLM-13 cell line (FLT3 ITD)): 1.07 µM
